In brackets after ≈: the same amount, converted by molar mass.
Columns and labels:
Test in all cases: ≥ marks a high value that may be exact or a test limit, other limits are often not marked, values filed in µg/mL are converted to µM
Cryptococcus neoformans = system: Cryptococcus neoformans
Staphylococcus aureus = system: Staphylococcus aureus
Salmonella typhimurium = system: Salmonella typhimurium
Pseudomonas putida = system: Pseudomonas putida
Bacillus subtilis = system: Bacillus subtilis
Escherichia coli = system: Escherichia coli
Candida albicans = system: Candida albicans
Serratia sp. = system: Serratia sp.
Saccharomyces cerevisiae = system: Saccharomyces cerevisiae
Streptococcus mutans = system: Streptococcus mutans
[1] = system: Escherichia coli IFO 12734
[2] = system: Staphylococcus aureus IFO 12732
[3] = system: Pseudomonas aeruginosa IFO 12582
[4] = system: Bacillus subtilis IFO 3143
Escherichia coli 4530 = system: Escherichia coli 4530
[5] = system: Enterobacter cloacae 2524
[6] = system: Enterobacter cloacae 6780
[7] = system: Pseudomonas aeruginosa 4677
[8] = system: Klebsiella pneumoniae 913
Acinetobacter baumannii = system: Acinetobacter baumannii
[9] = system: Escherichia coli ATCC 25922
[10] = system: Klebsiella pneumoniae 1625
Escherichia coli 170 = system: Escherichia coli 170
[11] = system: Pseudomonas aeruginosa CMCCB 1010
[12] = system: Candida albicans ATCC 2002
[13] = system: Klebsiella pneumoniae ATCC 700603
[14] = system: Staphylococcus aureus ATCC 25923
Pseudomonas aeruginosa = system: Pseudomonas aeruginosa
Staphylococcus aureus 37 = system: Staphylococcus aureus 37
Escherichia coli 117 = system: Escherichia coli 117
Escherichia coli 37 = system: Escherichia coli 37
[15] = system: Pseudomonas aeruginosa ATCC 27853
[16] = system: Enterococcus faecalis ATCC 29212
Staphylococcus aureus 10 = system: Staphylococcus aureus 10
[17] = system: Candida albicans ATCC 90028
[18] = system: Staphylococcus aureus KCTC 1621
[19] = system: Bacillus subtilis KCTC 1918
[20] = system: Bacillus megaterium KCTC 1096
[21] = system: Escherichia coli KCTC 1682
Proteus vulgaris = system: Proteus vulgaris
[22] = system: Pseudomonas aeruginosa KCTC 1637
[23] = system: Salmonella typhimurium KCTC 1926
[24] = system: Streptococcus pyogenes KCTC 3096

CC[C@H](C)[C@H](NC(=O)[C@H](CO)NC(=O)[C@H](CCCCN)NC(=O)[C@H](Cc1ccccc1)NC(=O)[C@H](CCCCN)NC(=O)[C@H](CCCCN)NC(=O)[C@H](CC(C)C)NC(=O)[C@@H]1CCCN1C(=O)[C@@H](NC(=O)[C@H](CCCCN)NC(=O)[C@@H](NC(=O)[C@@H](NC(=O)[C@H](C)N)C(C)C)C(C)C)C(C)C)C(=O)N[C@@H](CCCN=C(N)N)C(=O)N[C@@H](CCC(=O)O)C(=O)O [AVVKVPLKKFKSIRE] showed an MIC (Cryptococcus neoformans) of 23 µM (≈ 40 µg/mL), an MIC (Staphylococcus aureus) of 28.7 µM (≈ 50 µg/mL) and an MIC (Salmonella typhimurium) of 17.2 µM (≈ 30 µg/mL). For the same molecule, the MIC (Pseudomonas putida) was ≥ 57.4 µM, the MIC (Bacillus subtilis) was 11.5 µM (≈ 20 µg/mL) and the MIC (Escherichia coli) was 28.7 µM (≈ 50 µg/mL). For the same molecule, the MIC (Candida albicans) was 57.4 µM (≈ 100 µg/mL), the MIC (Serratia sp.) was 28.7 µM (≈ 50 µg/mL) and the MIC (Saccharomyces cerevisiae) was 5.74 µM (≈ 10 µg/mL). For the same molecule, the MIC (Streptococcus mutans) was 17.2 µM (≈ 30 µg/mL).
With CC(C)C[C@H](NC(=O)[C@H](Cc1ccc(O)cc1)NC(=O)[C@H](C)NC(=O)[C@@H](NC(=O)[C@H](CC(C)C)NC(=O)[C@H](C)NC(=O)[C@H](C)NC(=O)[C@H](CCCCN)NC(=O)CNC(=O)[C@@H](NC(=O)[C@H](C)NC(=O)[C@H](CCCCN)NC(=O)CNC(=O)[C@@H](NC(=O)[C@H](C)NC(=O)[C@H](C)NC(=O)[C@H](C)NC(=O)[C@H](CCCCN)NC(=O)[C@H](CCCCN)NC(=O)[C@H](Cc1ccccc1)NC(=O)[C@H](Cc1ccccc1)NC(=O)[C@H](CO)NC(=O)CNC(=O)[C@H](Cc1c[nH]c2ccccc12)NC(=O)CN)C(C)C)C(C)C)[C@@H](C)O)C(=O)O [GWGSFFKKAAAVGKAVGKAALTAYL] the MIC [1] was 6.37 µM (≈ 16 µg/mL), the MIC [2] was 6.37 µM (≈ 16 µg/mL) and the MIC [3] was 6.37 µM (≈ 16 µg/mL). The MIC [4] was 3.18 µM (≈ 8 µg/mL).
In the case of CC[C@H](C)[C@H](N)C(=O)N[C@@H](CCCCN)C(=O)N[C@@H](CO)C(=O)N[C@H](C(=O)N[C@@H](C)C(=O)N[C@@H](CO)C(=O)N[C@@H](CCCCN)C(=O)N[C@H](C(=O)N[C@@H](C)C(=O)N[C@@H](CC(N)=O)C(=O)N[C@H](C(=O)N[C@H](C(=O)N[C@@H](CCC(N)=O)C(=O)N[C@@H](CCCCN)C(=O)N[C@@H](CC(C)C)C(=O)N[C@@H](CCCCN)C(=O)N[C@@H](CCCN=C(N)N)C(=O)N[C@@H](CCCCN)C(=O)N[C@@H](C)C(=O)N[C@@H](CCCCN)C(=O)N[C@@H](CC(N)=O)C(=O)N[C@@H](C)C(=O)N[C@H](C(=O)N[C@@H](C)C(=O)O)C(C)C)C(C)C)[C@@H](C)O)C(C)C)[C@@H](C)CC [IKSIASKVANTVQKLKRKAKNAVA], the MIC (Escherichia coli 4530) is reported as ≥ 50 µM, the MIC [5] is reported as 3.12 µM (≈ 8.01 µg/mL) and the MIC [6] is reported as ≥ 50 µM. For the same molecule, the MIC [7] was ≥ 50 µM, the MIC [8] was ≥ 50 µM and the MIC (Acinetobacter baumannii) was 4.42 µM (≈ 11.3 µg/mL). The MIC [9] was 12.5 µM (≈ 32.1 µg/mL), the MIC [10] was 6.25 µM (≈ 16 µg/mL) and the MIC (Escherichia coli 170) was 1.56 µM (≈ 4 µg/mL).
For CC[C@H](C)[C@H](N)C(=O)N[C@@H](CC(N)=O)C(=O)N[C@@H](CC(C)C)C(=O)N[C@@H](CCCCN)C(=O)N[C@@H](C)C(=O)N[C@H](C(=O)N[C@@H](C)C(=O)N[C@@H](C)C(=O)N[C@@H](CC(C)C)C(=O)N[C@@H](C)C(=O)N[C@@H](CCCN=C(N)N)C(=O)N[C@@H](CC(N)=O)C(=O)N[C@@H](Cc1ccc(O)cc1)C(=O)O)[C@@H](C)CC [INLKAIAALARNY], the MIC [11] was ≥ 55.9 µM, the MIC [12] was ≥ 55.9 µM and the MIC [13] was 55.9 µM (≈ 80 µg/mL). For the same molecule, the MIC [14] was 6.99 µM (≈ 10 µg/mL), the MIC (Pseudomonas aeruginosa) was 6.99 µM (≈ 10 µg/mL) and the MIC (Staphylococcus aureus 37) was 6.99 µM (≈ 10 µg/mL). For the same molecule, the MIC (Escherichia coli 117) was 28 µM (≈ 40 µg/mL), the MIC (Escherichia coli 37) was ≥ 55.9 µM and the MIC [15] was 55.9 µM (≈ 80 µg/mL). The MIC [16] was 3.49 µM (≈ 5 µg/mL), the MIC (Staphylococcus aureus 10) was 28 µM (≈ 40 µg/mL) and the MIC [17] was 14 µM (≈ 20 µg/mL).
With CC[C@H](C)[C@H](NC(=O)[C@H](CCCCN)NC(=O)[C@H](CCCCN)NC(=O)[C@H](Cc1ccccc1)NC(=O)[C@H](Cc1c[nH]c2ccccc12)NC(=O)[C@@H](N)CCCCN)C(=O)N1CCC[C@H]1C(=O)N[C@@H](CCCCN)C(=O)N[C@@H](Cc1ccccc1)C(=O)N[C@@H](CC(C)C)C(=O)N[C@@H](Cc1cnc[nH]1)C(=O)N[C@@H](CC(C)C)C(=O)N[C@@H](CC(C)C)C(=O)N[C@@H](CCCCN)C(=O)N[C@@H](CCCCN)C(=O)N[C@@H](Cc1ccccc1)C(N)=O [KWFKKIPKFLHLLKKF] the MIC [18] was 1.56 µM (≈ 3.28 µg/mL), the MIC [19] was 0.78 µM (≈ 1.64 µg/mL) and the MIC [20] was 0.78 µM (≈ 1.64 µg/mL). For the same molecule, the MIC [21] was 3.12 µM (≈ 6.56 µg/mL), the MIC (Proteus vulgaris) was 3.12 µM (≈ 6.56 µg/mL) and the MIC [22] was 3.12 µM (≈ 6.56 µg/mL).
CC[C@H](C)[C@H](NC(=O)[C@H](CCCCN)NC(=O)[C@H](CCCCN)NC(=O)[C@H](Cc1ccccc1)NC(=O)[C@H](CC(C)C)NC(=O)[C@H](CCCCN)NC(=O)[C@H](Cc1c[nH]c2ccccc12)NC(=O)[C@@H](N)CCCCN)C(=O)N1CCC[C@H]1C(=O)N[C@@H](CCCCN)C(=O)N[C@@H](Cc1ccccc1)C(=O)N[C@@H](CC(C)C)C(=O)N[C@@H](Cc1cnc[nH]1)C(=O)N[C@@H](CO)C(=O)N[C@@H](C)C(=O)N[C@@H](CCCCN)C(=O)N[C@@H](CCCCN)C(=O)N[C@@H](Cc1ccccc1)C(N)=O [KWKLFKKIPKFLHSAKKF] gave an MIC [23] of 0.78 µM (≈ 1.77 µg/mL), an MIC [18] of 3.12 µM (≈ 7.11 µg/mL) and an MIC [19] of 1.56 µM (≈ 3.55 µg/mL). It also gave an MIC [24] of 0.78 µM (≈ 1.77 µg/mL), an MIC [21] of 6.25 µM (≈ 14.2 µg/mL) and an MIC [22] of 3.12 µM (≈ 7.11 µg/mL).

Reference: DBAASP
